SMILES strings stand for the structures.

Experimental findings from patent US20250059188A1, “ARYLSULPHONAMIDE COMPOUNDS” (Anaxis Pharma Pty Ltd, priority 2021, published 2025) are described below.

The subject of assay [1] is U937 human histiocytic leukemia cell line. The assay is described as follows: Inhibition of TSQ induced necroptosis in U937 cells (CellTitre-Glo). The conditions noted are these: Homo sapiens, U-937, TSQ cocktail (TNF, Smac mimetic, Q-VD-OPh), 48 hours, read-out: Inhibition of TSQ-induced necroptosis (IC50 cell-based assay). As to the method: Cellular Assay: Screening Compounds for Inhibition of TSQ Induced Necroptosis, 384 Well Plate Format.
(§1) • Cell Line ID: U937 human histiocytic leukemia cell line. • Cell Concentration (cells/well): Final cell density is 20000 cells per well. • Cell growth medium: HT-RPMI medium+7.4% Fetal Bovine Serum (FBS). Cells are cultured in Corning 150 cm^2 tissue culture flasks with vented caps at 37° C./5% CO2. • Incubation: Plates were incubated at 37° C./5% CO2 in a humidified incubator for 48 hours following addition of compounds and death stimuli (TSQ cocktail). • Compound concentration: 36 μM starting concentration, 1:3 dilution, 10 point • DMSO final concentration (% v/v): 0.3%. Compounds in TSQ Cocktail (T: TNF; S: Smac Mimetic; Q: Q-VD-OPh) and their Final Concentrations: • hTNF-Fc (100 ng/ml)—produced by standard procedures as shown in Bossen et al., J. Biol. Chem., 2006, 281(20), 13964-13971. • Compound A (500 nM) —Smac mimetic, Tetralogic and SYNthesis med chem • Q-VD-OPh (10 μM) —MP Biomedicals
(§2) The cellular assay was carried out according to the following steps: • 1. Each well was prepared by sequential addition of: • a. DMSO (control; columns 1-2 and 23-24) or compound in DMSO—addition was performed using acoustic transfer of nL volumes of stock compound to give final test concentrations of 36, 12, 4, 1.3, 0.44, 0.148, 0.049, 0.016, 0.005 and 0.002 μM. All wells were backfilled with DMSO to a final total volume in the well of 100 nL. • b. Following compound/DMSO addition in step (a), 40 μL of cell suspension (5×10^5 cells/mL) was added to provide a final cell concentration of 20,000 cells per well, and • c. Following cell addition in step (b), 10 μL of 5×TSQ cocktail (except to positive controls; columns 1 and 23) was added to each well. • 2. After 48 hours, plate was removed from the 37° C. incubator and equilibrated to room temperature for 45 minutes. • 3. 15 μL of room temperature CellTitre-Glo2™ (Promega™) was added to each well. • 4. Shook plates for 2 minutes (˜600 rpm) and incubated at room temperature for 15 minutes to allow signal to stabilise. • 5. Read luminescence readout on a plate reader.
Percent viability was calculated for each compound according to equation (2): […]
(§3) 10 point titration curves were fitted with the 4 parameter logistic nonlinear regression model and the IC50 reported reflect the inflection point of the curve for curve fitting.
(§4) • Assay involving the TSQ cocktail (T: TNF; S: Smac mimetic; Q: Q-VD-OPh): TSQ treatment ensures that cells specifically undergo necroptotic cell death. TNF activates the TNF receptor, Smac mimetic directs the signal away from proinflammatory signaling and toward the RIPK1/RIPK3-mediated cell death pathways, and Q-VD-OPh ensures that the apoptotic response is blocked leaving only the programmed necrosis response. The compounds' activity (solution in DMSO) tested in this TSQ-induced assay was evaluated by determining the number of viable cells in culture by measuring the amount of ATP present as measured by CelltiterGlo. • Counter screen: In parallel, all compounds were tested for their ability to affect cell viability. The same U937 cells were treated with compound in DMSO without the TSQ cocktail. This counter screen enabled evaluation of off-target effects. In this case, cell viability was measured by CelltiterGlo.

For the next assay, the system named is U937 cells. In words: Counter screen: U937 cell viability without TSQ cocktail (off-target effect). On the set-up: species or system human. The conditions noted are these: Homo sapiens, U-937, compound without TSQ cocktail, read-out: Off-target effect (IC50 cell-based assay). As to the method: as §1, §2, §3, §4
Background: A counterscreen serves to expose hits that act by an unwanted route or on another target.

A further assay has as its target human MLKL (full length) (Homo sapiens (Human), UniProt Q8NB16). In words: KINOMEscan binding assay, human MLKL (full length). The conditions noted are these: equilibrium dissociation constant. As to the method: (§5) Binding affinity of the test compounds for human MLKL (full length), mouse MLKL (full length), human RIPK1 and human RIPK3 was determined using the KINOMEscan™ technology developed by DiscoverX (USA; http://www.discoverx.com). The assay was conducted according to manufacturer instructions.
(§6) Kinase assays. For most assays, kinase-tagged T7 phage strains were grown in parallel in 24-well blocks in an E. coli host derived from the BL21 strain. E. coli were grown to log-phase and infected with T7 phage from a frozen stock (multiplicity of infection=0.4) and incubated with shaking at 32° C. until lysis (90-150 minutes). The lysates were centrifuged (6,000×g) and filtered (0.2 μm) to remove cell debris. The remaining kinases were produced in HEK-293 cells and subsequently tagged with DNA for qPCR detection. […] The liganded beads were blocked with excess biotin and washed with blocking buffer (SeaBlock (Pierce), 1% BSA, 0.05% Tween 20, 1 mM DTT) to remove unbound ligand and to reduce non-specific phage binding. […] All reactions were performed in polypropylene 384-well plates in a final volume of 20 μL. […] The kinase concentration in the eluates was measured by qPCR.
(§7) An 11-point 3-fold serial dilution of each test compound was prepared in 100% DMSO at 100× final test concentration and subsequently diluted to 1× in the assay (final DMSO concentration=1%). Most Kos were determined using a compound top concentration=30,000 nM.
(§8) KD for each test compound was calculated with a standard dose-response curve using the Hill equation (equation (1)): […]
(§9) The Hill Slope was set to −1.
(§10) Curves were fitted using a non-linear least square fit with the Levenberg-Marquardt algorithm.

In a further assay the target is human RIPK1 (Homo sapiens (Human), UniProt Q13546). In words: KINOMEscan binding assay, human RIPK1. Conditions: equilibrium dissociation constant. As to the method:
as §5, §6, §7, §8, §9, §10

In the next assay the target is human RIPK3 (Homo sapiens (Human), UniProt Q9Y572). The assay is described as follows: KINOMEscan binding assay, human RIPK3. Conditions: equilibrium dissociation constant. As for the experimental part: as §5, §6, §7, §8, §9, §10
human RIPK3, sequence (Q9Y572 whole entry): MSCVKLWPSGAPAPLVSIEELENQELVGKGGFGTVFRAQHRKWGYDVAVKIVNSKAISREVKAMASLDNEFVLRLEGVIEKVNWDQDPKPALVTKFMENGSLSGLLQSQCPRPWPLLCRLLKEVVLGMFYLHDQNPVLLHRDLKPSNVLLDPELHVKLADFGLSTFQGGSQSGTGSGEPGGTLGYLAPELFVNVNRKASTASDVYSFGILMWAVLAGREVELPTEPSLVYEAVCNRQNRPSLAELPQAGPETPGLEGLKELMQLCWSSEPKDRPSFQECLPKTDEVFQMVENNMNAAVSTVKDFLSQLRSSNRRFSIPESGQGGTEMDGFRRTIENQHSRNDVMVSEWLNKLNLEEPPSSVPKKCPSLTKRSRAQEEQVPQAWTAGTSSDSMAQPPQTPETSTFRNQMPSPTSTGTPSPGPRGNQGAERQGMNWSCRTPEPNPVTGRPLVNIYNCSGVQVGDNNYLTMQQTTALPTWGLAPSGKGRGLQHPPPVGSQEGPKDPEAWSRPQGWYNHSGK

human RIPK1, sequence (Q13546 whole entry): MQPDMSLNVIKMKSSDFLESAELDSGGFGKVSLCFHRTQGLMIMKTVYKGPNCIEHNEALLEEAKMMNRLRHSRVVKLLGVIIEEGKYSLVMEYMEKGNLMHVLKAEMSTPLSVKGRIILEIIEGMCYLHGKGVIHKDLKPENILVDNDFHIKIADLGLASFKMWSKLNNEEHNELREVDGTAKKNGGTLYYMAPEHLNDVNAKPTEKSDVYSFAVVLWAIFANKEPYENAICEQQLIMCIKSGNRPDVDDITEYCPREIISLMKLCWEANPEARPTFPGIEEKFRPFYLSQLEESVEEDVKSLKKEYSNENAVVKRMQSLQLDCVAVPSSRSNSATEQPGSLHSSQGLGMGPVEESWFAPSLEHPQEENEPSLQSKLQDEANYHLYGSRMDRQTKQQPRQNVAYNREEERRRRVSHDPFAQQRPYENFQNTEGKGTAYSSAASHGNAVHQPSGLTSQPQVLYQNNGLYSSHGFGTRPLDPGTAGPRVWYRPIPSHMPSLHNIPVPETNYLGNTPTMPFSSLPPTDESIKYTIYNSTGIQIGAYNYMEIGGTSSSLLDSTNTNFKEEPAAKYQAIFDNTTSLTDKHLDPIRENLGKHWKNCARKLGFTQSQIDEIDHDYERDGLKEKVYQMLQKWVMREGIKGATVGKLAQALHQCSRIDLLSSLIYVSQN
human MLKL (full length), sequence (Q8NB16 whole entry): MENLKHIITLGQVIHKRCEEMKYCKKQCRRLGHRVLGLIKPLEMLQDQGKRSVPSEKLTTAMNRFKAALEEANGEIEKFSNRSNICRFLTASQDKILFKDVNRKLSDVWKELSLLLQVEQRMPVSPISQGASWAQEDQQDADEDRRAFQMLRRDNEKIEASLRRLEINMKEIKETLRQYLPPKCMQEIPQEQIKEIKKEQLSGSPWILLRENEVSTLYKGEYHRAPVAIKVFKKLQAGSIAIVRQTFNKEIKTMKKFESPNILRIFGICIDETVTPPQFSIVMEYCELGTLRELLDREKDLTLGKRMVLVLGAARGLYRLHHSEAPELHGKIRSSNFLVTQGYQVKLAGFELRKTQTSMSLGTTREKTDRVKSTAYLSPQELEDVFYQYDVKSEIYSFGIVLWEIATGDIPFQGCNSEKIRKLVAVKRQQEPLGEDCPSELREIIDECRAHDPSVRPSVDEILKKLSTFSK

`Cn1nc(-c2ccc(NS(=O)(=O)C(F)F)c(OCc3ccc(F)cc3)c2)c2c(N)ncc(-c3cnn(CCO)c3)c21` [Compound 12, N-(4-(4-amino-7-(1-(2-hydroxyethyl)-1H-pyrazol-4-yl)-1-methyl-1H-pyrazolo[4,3-c]pyridin-3-yl)-2-((4-fluorobenzyl)oxy)phenyl)-1,1-difluoromethanesulfonamide]: the IC50 in assay [1] is 1 to 10 µM; with U937 cells it was > 10 µM.

For `Cn1nc(-c2ccc(NS(=O)(=O)C(F)F)c(OCc3ccc(F)cc3)c2)c2c(N)ncc(-c3ccncc3)c21` [Compound 14, N-(4-(4-amino-1-methyl-7-(pyridin-4-yl)-1H-pyrazolo[4,3-c]pyridin-3-yl)-2-((4-fluorobenzyl)oxy)phenyl)-1,1-difluoromethanesulfonamide], the figures for the IC50 (in assay [1]; with U937 cells) were 1 to 10 µM and > 10 µM, respectively.

Regarding `Cc1cnccc1-c1cnc(N)c2c(-c3ccc(NS(=O)(=O)C(F)F)c(O[C@@H](C)c4ccc(F)cc4)c3)nn(C)c12` [Compound 32, (S)-N-(4-(4-amino-1-methyl-7-(3-methylpyridin-4-yl)-1H-pyrazolo[4,3-c]pyridin-3-yl)-2-(1-(4-fluorophenyl)ethoxy)phenyl)-1,1-difluoromethanesulfonamide], the IC50 was 1 to 10 µM in assay [1] and > 10 µM in the assay with U937 cells.

Regarding `CCS(=O)(=O)Nc1ccc(-c2cccc3[nH]nc(N)c23)cc1OCc1ccc(F)cc1` [Compound 62, N-(4-(3-Amino-1H-indazol-4-yl)-2-((4-fluorophenyl)methoxy)phenyl)ethane-1-sulfonamide], the half-maximal inhibitory concentration (IC50) is 1 to 10 µM in assay [1] and > 10 µM in the assay with U937 cells.

With `C[C@H](Oc1cc(-c2nn(C)c3c(-c4cnc(N5CCCC5)nc4)cnc(N)c23)ccc1NS(=O)(=O)C(F)F)c1ccc(F)cc1` [Compound 114, (S)-N-(4-(4-amino-1-methyl-7-(2-(pyrrolidin-1-yl)pyrimidin-5-yl)-1H-pyrazolo[4,3-c]pyridin-3-yl)-2-(1-(4-fluorophenyl)ethoxy)phenyl)-1,1-difluoromethanesulfonamide], the Kd was 0.001 to 0.1 µM at human MLKL (full length), > 10 µM at human RIPK1 and > 10 µM at human RIPK3.

Turning to `C[C@H](Oc1cc(-c2nn(C)c3c(-c4cnn(C5CCOCC5)c4)cnc(N)c23)ccc1NS(=O)(=O)C(F)F)c1ccccc1F` [Compound 118, (S)-N-(4-(4-amino-1-methyl-7-(1-(tetrahydro-2H-pyran-4-yl)-1H-pyrazol-4-yl)-1H-pyrazolo[4,3-c]pyridin-3-yl)-2-(1-(2-fluorophenyl)ethoxy)phenyl)-1,1-difluoromethanesulfonamide], the Kd on human MLKL (full length) is 0.001 to 0.1 µM; at human RIPK1, > 10 µM; at human RIPK3, > 10 µM.

For `C[C@H](Oc1cc(-c2nn(C)c3c(-c4cnn(C5CCOCC5)c4)cnc(N)c23)ccc1NS(=O)(=O)N(C)C)c1ccc(F)cc1` [Compound 124], the Kd is 0.1 to 10 µM on human MLKL (full length), > 10 µM on human RIPK1 and > 10 µM at human RIPK3.

As for `C[C@H](Oc1cc(-c2nn(C)c3c(-c4cnn(C5CCOCC5)c4)cnc(N)c23)ccc1NS(=O)(=O)Cc1ccccc1)c1ccc(F)cc1` [Compound 125, (S)-N-(4-(4-amino-1-methyl-7-(1-(tetrahydro-2H-pyran-4-yl)-1H-pyrazol-4-yl)-1H-pyrazolo[4,3-c]pyridin-3-yl)-2-(1-(4-fluorophenyl)ethoxy)phenyl)-1-phenylmethanesulfonamide], the Kd on human MLKL (full length) was 0.001 to 0.1 µM; at human RIPK1, > 10 µM; on human RIPK3, > 10 µM.

On to `COc1ccc([C@H](C)Oc2cc(-c3nn(C)c4c(-c5cnn(C6CCOCC6)c5)cnc(N)c34)ccc2NS(=O)(=O)C(F)F)cc1` [Compound 129, (S)-N-(4-(4-amino-1-methyl-7-(1-(tetrahydro-2H-pyran-4-yl)-1H-pyrazol-4-yl)-1H-pyrazolo[4,3-c]pyridin-3-yl)-2-(1-(4-methoxyphenyl)ethoxy)phenyl)-1,1-difluoromethanesulfonamide], for which the IC50 in assay [1] is 0.01 to 1 µM; in the assay on U937 cells, > 10 µM.

In the case of `Cn1nc(-c2ccc(NS(=O)(=O)C(F)F)c(OCc3cccc(Cl)c3)c2)c2c(N)ncc(-c3cnn(C4CCOCC4)c3)c21` [Compound 130, N-(4-(4-amino-1-methyl-7-(1-(tetrahydro-2H-pyran-4-yl)-1H-pyrazol-4-yl)-1H-pyrazolo[4,3-c]pyridin-3-yl)-2-((3-chlorobenzyl)oxy)phenyl)-1,1-difluoromethanesulfonamide], the results for the Kd on human MLKL (full length), on human RIPK1 and at human RIPK3 were < 0.001 µM, > 10 µM and > 10 µM, respectively.

Take `Cn1nc(-c2ccc(NS(=O)(=O)C(F)F)c(OCc3ccc(Cl)cn3)c2)c2c(N)ncc(-c3cnn(C4CCOCC4)c3)c21` [Compound 136, N-(4-(4-amino-1-methyl-7-(1-(tetrahydro-2H-pyran-4-yl)-1H-pyrazol-4-yl)-1H-pyrazolo[4,3-c]pyridin-3-yl)-2-((5-chloropyridin-2-yl)methoxy)phenyl)-1,1-difluoromethanesulfonamide]: the IC50 is 0.01 to 1 µM in assay [1] and > 10 µM with U937 cells.

Regarding `Cn1nc(-c2ccc(NS(=O)(=O)C(F)F)c(OCc3nccs3)c2)c2c(N)ncc(-c3cnn(C4CCOCC4)c3)c21` [Compound 143, N-(4-(4-amino-1-methyl-7-(1-(tetrahydro-2H-pyran-4-yl)-1H-pyrazol-4-yl)-1H-pyrazolo[4,3-c]pyridin-3-yl)-2-(thiazol-2-ylmethoxy)phenyl)-1,1-difluoromethanesulfonamide], the figures for the Kd at human MLKL (full length), on human RIPK1 and at human RIPK3 were < 0.001 µM, > 10 µM and > 10 µM, respectively.

Regarding `CC(C)Oc1cc(-c2nn(C)c3c(-c4cnn(C5CCOCC5)c4)cnc(N)c23)ccc1NS(=O)(=O)C(F)F` [Compound 144, N-(4-(4-amino-1-methyl-7-(1-(tetrahydro-2H-pyran-4-yl)-1H-pyrazol-4-yl)-1H-pyrazolo[4,3-c]pyridin-3-yl)-2-isopropoxyphenyl)-1,1-difluoromethanesulfonamide], the Kd was < 0.001 µM on human MLKL (full length), > 10 µM at human RIPK1 and > 10 µM at human RIPK3.

As to `Cn1nc(-c2ccc(NS(=O)(=O)C(F)F)c(OCc3ncco3)c2)c2c(N)ncc(-c3cnn(C4CCOCC4)c3)c21` [Compound 151, N-(4-(4-amino-1-methyl-7-(1-(tetrahydro-2H-pyran-4-yl)-1H-pyrazol-4-yl)-1H-pyrazolo[4,3-c]pyridin-3-yl)-2-(oxazol-2-ylmethoxy)phenyl)-1,1-difluoromethanesulfonamide], the values for the Kd on human MLKL (full length), at human RIPK1 and at human RIPK3 were < 0.001 µM, > 10 µM and > 10 µM, respectively.

Usually IC50 stands for the concentration at which inhibition is half-maximal. One may read the Kd as the equilibrium constant for the complex coming apart. The low end stands for a tighter complex, the high end for a looser complex.
